Results published in US10729820B2, “Methods and processes for application of drug delivery polymeric coatings” (Ariste Medical, LLC, priority 2014, dated 2020).
Where a name gives a salt, the structure may show the parent alone. Read-outs that look alike come from different tables or passages of the source.

Columns and labels:
[1] = type: physicochemical; conditions: 0.04 mg/cm^2
Description: Mesh was cut into three pieces, each approximate 4 cm^2. Each piece was weighed and it was made sure each piece was 50 mg as the actual area was, ca, 50.0 mg/(10.7 mg/cm^2)=4.7 cm^2. Thiolene formula (60 mg) (thiolene formula contains 67.22 wt % Pentaerythritol tetrakis(3-mercaptopropionate), 32.73 wt % […] Isocyanurate, and 0.05 wt % Hydroquinone:tertbutyl cathetol (1:1 mixture by moles), density is, ca, 1.2 g/mL) was dissolved in acetone aiming for the concentration of 100 mg/mL. […] Made three specimens as shown Table 1. The solutions were transferred onto PP mesh using an automatic pipette while the meshes were held by a plastic clamp. […] The thiolene formula loading was set to 2.5 mg/cm^2 in this experiment. […] HPLC runs of each specimen extract from methanol were performed under the conditions below: • Channel A: 35 mM sodium phosphate monobasic, 1 vol % triethylamine, final pH=7.5 with phosphoric acid • Channel B: acetonitrile • Column temperature=30° C. • Column type: 3×150 mm with 3.5 μm phenyl phase packing • Measurement: absorbance at 280 nm • Solvent flow rate: 1 mL/min • Solvent profile: 0-10 minutes 0-50 vol % Channel B; 10-20 minutes 50 vol % Channel B; 20-25 minutes 50-0 vol % Channel B. The concentration of minocycline hydrochloride and rifampin in specimen 2 after curing were determined using direct proportions of peak area integration of specimen 3. • a. […]

[2] = type: physicochemical; conditions: 0.04 mg/cm^2; remark: listed apart in the source
Description: Three pieces, each approximate 4 cm^2, of polypropylene (PP) mesh (density d=107 g/m^2) were cut and weighed to make sure that each piece has same weight. The weight was 42.7 mg for each piece as the actual area was, ca, 42.7 mg/(10.7 mg/cm^2)=4 cm^2. Polyethylene glycol dimethacrylate (PEG DM) (60 mg) was weighed and dissolve the in acetone making the concentration as 100 mg/mL. PTPO (4.5 mg) was weighed and dissolve in acetone making the concentration as 10 mg/mL. 5 μL of PTPO solution (containing 50 ug PTPO) in step and 100 μL of PEG DM solution (containing 10 mg of PEG DM formula, described above) were mixed in a 1.5 mL centrifuge tube so that the PTPO to PEG DM weight ratio was 0.5%. Took preweighed 157 μg of minocycline and 157 μg of rifampin, so that the drug loading was about 0.04 mg/cm^2 in this experiment for each drug. The solutions were transferred onto PP mesh using an automatic pipette while the meshes were held by a plastic clamp. Specimen 4 and 5 were subjected to curing while specimen 6 was chosen as a reference. The thiolene formula loading was 2.5 mg/cm^2 in this experiment. […]
Using direct proportions of peak integration of specimen 6, the concentration of minocycline hydrochloride and rifampin in specimen 5 after curing was determined. […] The antibiotics remaining after curing were calculated as: {(Peak integration of specimen 5)/(peak integration of specimen 6)}×100%

[3] = type: physicochemical; conditions: 0.4 mg/cm^2
Description: Three 35.3 mg, 3.24 cm^2 pieces of polypropylene mesh were cut. About 80 mg thiolene formula (67.22 wt % pentaerythritol tetrakis(3-mercaptopropionate), 32.73 wt % triallyl isocyanurate, and 0.05 wt % hydroquinone:tertbutyl cathetol (1:1 mixture by moles), density is, ca, 1.2 g/mL) was weighed and dissolve the formula in acetone aiming for the concentration of 200 mg/mL. Weighed about 2 mg PTPO and dissolved it in acetone aiming for the concentration of 10 mg/mL. Took 8.1 μL of solution of PTPO (which contained 81 ug PTPO) and 81 μL of the thiolene solution (which contained 16.2 mg of thiolene formula) and mixed them in a 1.5 mL centrifuge tube, so that the PTPO to monomer weight ratio was 0.005. The thiolene formula to PP mesh ratio was 5 mg/cm^2. Drugs were dissolved in methanol and drug/methanol solutions were mixed with monomer/acetone solutions such that solvent ratios were at 2:1 acetone:methanol for drug containing specimens (Table 8). Those specimens not containing drug used pure acetone solvents in the coating formulation. […]
The concentration of minocycline hydrochloride and rifampin in specimen 8 was determined using direct proportions of peak area integrations and taking of […] as 100% drug control. […] The antibiotics remaining after curing was calculated as: {(Peak integration of specimen 8)/(peak integration of specimen 9)}×100%

[4] = Antibiotics remaining after curing, pentaerythritol tetrakis(3-mercaptopropionate)/PEG DM thiolene coating (EXP12-formula) with PTPO, HPLC peak integration (Example 12); type: physicochemical; conditions: specimen 11 vs specimen 9, 0.4 mg/cm^2 each drug, curing time 10 mins
Description: All procedures were same as Example 11 except that the thiolene formula was replaced by the following formula (10 g of pentaerythritol tetrakis(3-mercaptopropionate) (from Sigma Aldrich, P #381462, lot #80896TMV) and 21.4 g of polyethylene glycol dimethacrylate (from Sigma Aldrich, P #409510, lot # MKBP0253V) (EXP12-formula). The curing time was set to 10 mins. The two specimens used in curing are shown in the following Table 11. Specimen 9 as discussed in Example 11 was used as a standard.
The top is specimen 9 and the bottom is the cured specimen 11 with drug loading.

[5] = Antibiotics remaining after curing, EXP12-formula coating with Irgacure 2959, HPLC peak integration (Example 13); type: physicochemical; conditions: cured specimen with drug vs specimen 9, Irgacure 2959, UV-C chamber, curing time 10 mins
Description: All procedures are same as Example 12 except the PTPO is replaced by Irgacure 2959. The curing time was set to 10 mins. The UV source was Ariste UV-C chamber. […]

[6] = Drug survival during polymerization and post cure loading, BPDM/NTG-GMA methacrylate coating on DualMesh ePTFE, HPLC of methanol extracts (Example 4); type: physicochemical; conditions: drugs in casting solution, theoretical 400 μg/cm^2 each drug, methanol extract
From the text: An acetone:ethanol:BPDM solution:NTG-GMA solution in 1:1:1:1 volume ratio was used to coat DualMesh Biomaterial with drugs both present during the polymerization process and loaded into the polymer network after curing had been performed. Circular 0.785 cm^2 samples of DualMesh were coated. In the version were drugs were included in the casting solution, both minocycline hydrochloride and rifampin were incorporated at levels such if no degradation were to have occurred each drug would have been loaded at a bulk surface area density of 400 μg/cm^2. The post-cure loaded version was created by coating the DualMesh with the same amount of polymer coating, and then submerging the specimen in a 5 mL methanol bath containing each drug at 10 mg/mL overnight (˜18 hours) at 4° C. After soaking in the methanol/drug solution, specimens were retrieved from the loading solution and allowed to air dry. Once dried they were passed through two rinse solutions using the following technique: forceps were used to hold specimens while contacting a minimal amount of the surface, vigorously shake the specimen in a 15 mL methanol rinse for 15 seconds, move specimen to a second 15 mL methanol bath and vigorously shake for an additional 15 seconds, and finally allow to air dry. Shaking was performed by moving the forceps back while holding the specimen submerged in the rinse. […]

[7] = Drug destruction on curing, thiolene coating with PTPO on polypropylene mesh, HPLC of methanol extracts (Example 6); type: physicochemical; conditions: 0.1 wt % PTPO, halogen dental curing lamp, six coats, theoretical 0.2 mg/cm^2 each drug
Description: 1:1:8 weight ratio of monomer (67.22 wt % pentaerythritol tetrakis(3-mercaptopropionate), 32.73 wt % triallyl isocyanurate, and 0.05 wt % hydroquinone:tertbutyl cathetol (1:1 mixture by mole)):methanol:acetone containing minocycline hydrocholoride and rifampin at 50 mg/mL of each drug blend was made. PTPO (BASF P/N 56415733) was added at 0.1 wt %. Polymerization was induced using a halogen dental curing lamp through curing at a distance 2″ from the light guide for 10 seconds on each side of the mesh. Six coats were applied to result in a theoretical loading of 0.2 mg/cm^2 of each drug. HPLC analysis of methanol extracts indicated 72% and 69% destruction of minocycline hydrochloride and rifampin, respectively. High degradation rates may be the result of the phosphine oxide initiator, which could destroy these drugs upon activation.

| Remaining after curing [1] [%] | Remaining after curing [2] [%] | Remaining after curing [3] [%] | Remaining after curing [4] [%] | Remaining after curing [5] [%] | destruction of drug [7] [%] | SMILES | average drug survival during the polymerization process [6] [%] |
| --- | --- | --- | --- | --- | --- | --- | --- |
| 88 | 76 | 64 | 54 | 85 | – | CN(C)c1ccc(O)c2c1C[C@H]1C[C@H]3[C@H](N(C)C)C(O)=C(C(N)=O)C(=O)[C@@]3(O)C(O)=C1C2=O [Minocycline, minocycline hydrochloride] | – |
| 87 | 97 | 61 | 58 | 85 | 69 | CO[C@H]1/C=C/O[C@@]2(C)Oc3c(C)c(O)c4c(O)c(c(/C=N/N5CCN(C)CC5)c(O)c4c3C2=O)NC(=O)/C(C)=C\C=C\[C@H](C)[C@H](O)[C@@H](C)[C@@H](O)[C@@H](C)[C@H](OC(C)=O)[C@@H]1C [Rifampin, rifampin] | 79 |
